Data set [1] in a line: The drug is tested on Z-020 corresponding to rabbit gut metagenome with ENA study accession number: PRJEB37062 and ENA sample accession number: ERS12561819 for biotransformation under anaerobic condition. The drug concentrations were measured over 9 timepoints collected between 0 and 24 hours of incubation by liquid-chromatography-coupled mass spectrometry (LC–MS). Conditions: 2 µM.

For data set [2] the following is noted: human gut metagenome, 24 h, 2 µM.
Data set [3] can be described thus: The drug is tested on Z-018 corresponding to pig gut metagenome with ENA study accession number: PRJEB37062 and ENA sample accession number: ERS12561817 for biotransformation under anaerobic condition. The drug concentrations were measured over 9 timepoints collected between 0 and 24 hours of incubation by liquid-chromatography-coupled mass spectrometry (LC–MS). Conditions: 2 µM.

For data set [4] the following is noted: human gut metagenome, 24 h, 2 µM. The source holds these as a separate data set.
A short description of data set [5]: The drug is tested on WLS-069 corresponding to human gut metagenome with ENA study accession number: PRJEB37062 and ENA sample accession number: ERS12561748 for biotransformation under anaerobic condition. The drug concentrations were measured over 9 timepoints collected between 0 and 24 hours of incubation by liquid-chromatography-coupled mass spectrometry (LC–MS). Conditions: 2 µM.

A short description of data set [6]: The drug is tested on Z-029 corresponding to rat gut metagenome with ENA study accession number: PRJEB37062 and ENA sample accession number: ERS12561828 for biotransformation under anaerobic condition. The drug concentrations were measured over 9 timepoints collected between 0 and 24 hours of incubation by liquid-chromatography-coupled mass spectrometry (LC–MS). The following applies: 2 µM.

For data set [7] the following is noted: human gut metagenome, 24 h, 2 µM. The source holds these as a separate data set.
A short description of data set [8]: The drug is tested on WLS-052 corresponding to human gut metagenome with ENA study accession number: PRJEB37062 and ENA sample accession number: ERS12561747 for biotransformation under anaerobic condition. The drug concentrations were measured over 9 timepoints collected between 0 and 24 hours of incubation by liquid-chromatography-coupled mass spectrometry (LC–MS). The following applies: 2 µM.

Data set [9] can be described thus: The drug is tested on WLS-082 corresponding to human gut metagenome with ENA study accession number: PRJEB37062 and ENA sample accession number: ERS12561751 for biotransformation under anaerobic condition. The drug concentrations were measured over 9 timepoints collected between 0 and 24 hours of incubation by liquid-chromatography-coupled mass spectrometry (LC–MS). The following applies: 2 µM.

The nature of data set [10]: The drug is tested on WLS-220 corresponding to human gut metagenome with ENA study accession number: PRJEB37062 and ENA sample accession number: ERS12561769 for biotransformation under anaerobic condition. The drug concentrations were measured over 9 timepoints collected between 0 and 24 hours of incubation by liquid-chromatography-coupled mass spectrometry (LC–MS). Conditions: 2 µM.

The conditions of data set [11]: human gut metagenome, 24 h, 2 µM. The source holds these as a separate data set.
Data set [12] is described as follows: The drug is tested on WLS-010 corresponding to human gut metagenome with ENA study accession number: PRJEB37062 and ENA sample accession number: ERS12561743 for biotransformation under anaerobic condition. The drug concentrations were measured over 9 timepoints collected between 0 and 24 hours of incubation by liquid-chromatography-coupled mass spectrometry (LC–MS). Conditions: 2 µM.

The conditions of data set [13]: human gut metagenome, 24 h, 2 µM. This is another data set of the same source.
The nature of data set [14]: The drug is tested on Z-011 corresponding to mouse gut metagenome with ENA study accession number: PRJEB37062 and ENA sample accession number: ERS12561811 for biotransformation under anaerobic condition. The drug concentrations were measured over 9 timepoints collected between 0 and 24 hours of incubation by liquid-chromatography-coupled mass spectrometry (LC–MS). The following applies: 2 µM.

A short description of data set [15]: The drug is tested on Z-024 corresponding to pig gut metagenome with ENA study accession number: PRJEB37062 and ENA sample accession number: ERS12561823 for biotransformation under anaerobic condition. The drug concentrations were measured over 9 timepoints collected between 0 and 24 hours of incubation by liquid-chromatography-coupled mass spectrometry (LC–MS). Conditions: 2 µM.

Data set [16] can be described thus: The drug is tested on Z-001 corresponding to mouse gut metagenome with ENA study accession number: PRJEB37062 and ENA sample accession number: ERS12561801 for biotransformation under anaerobic condition. The drug concentrations were measured over 9 timepoints collected between 0 and 24 hours of incubation by liquid-chromatography-coupled mass spectrometry (LC–MS). The following applies: 2 µM.

Data set [17] is described as follows: The drug is tested on Z-028 corresponding to mouse gut metagenome with ENA study accession number: PRJEB37062 and ENA sample accession number: ERS12561827 for biotransformation under anaerobic condition. The drug concentrations were measured over 9 timepoints collected between 0 and 24 hours of incubation by liquid-chromatography-coupled mass spectrometry (LC–MS). The following applies: 2 µM.

The conditions of data set [18]: human gut metagenome, 24 h, 2 µM. This is another data set of the same source.
Data set [19] can be described thus: The drug is tested on Z-012 corresponding to metagenome with ENA study accession number: PRJEB37062 and ENA sample accession number: ERS12561812 for biotransformation under anaerobic condition. The drug concentrations were measured over 9 timepoints collected between 0 and 24 hours of incubation by liquid-chromatography-coupled mass spectrometry (LC–MS). The following applies: 2 µM.

For data set [20] the following is noted: human gut metagenome, 24 h, 2 µM. The source holds these as a separate data set.
Also: call rule not given here.

Consider `CCc1nn(CCCN2CCN(c3cccc(Cl)c3)CC2)c(=O)n1CCOc1ccccc1` [NEFAZODONE], for which the “Bacterial Biotransformation” value in data set [1] is on record as “Compound NOT metabolized”; in data set [2] it was “Compound NOT metabolized”; in [3], “Compound NOT metabolized”; in [4], “Compound metabolized”; in data set [5], “Compound metabolized”; in data set [6] it was “Compound NOT metabolized”. Further, the “Bacterial Biotransformation” value is given as “Compound NOT metabolized” in data set [7]; “Compound metabolized” in [8]; “Compound metabolized” in [9]; “Compound metabolized” in data set [10]; “Compound metabolized” in [11]; “Compound metabolized” in data set [12]. Moreover, the “Bacterial Biotransformation” value in data set [13] is on record as “Compound metabolized”; in [14], “Compound NOT metabolized”; in [15], “Compound NOT metabolized”; in data set [16] it was “Compound NOT metabolized”; in data set [17] it was “Compound NOT metabolized”; in data set [18], “Compound metabolized”. Further, the “Bacterial Biotransformation” value in data set [19] is “Compound NOT metabolized”; in [20], “Compound metabolized”.

Regarding `CN1CCOC(c2ccccc2)c2ccccc2C1` (stereo not given) [NEFOPAM], the “Bacterial Biotransformation” value in data set [1] was “Compound NOT metabolized”; in [2], “Compound NOT metabolized”; in data set [3], “Compound NOT metabolized”; in [4], “Compound metabolized”; in data set [5], “Compound NOT metabolized”; in [6], “Compound NOT metabolized”. Also, the “Bacterial Biotransformation” value in [7] is reported as “Compound metabolized”; in data set [8], “Compound NOT metabolized”; in data set [9] it was “Compound NOT metabolized”; in data set [10], “Compound metabolized”; in data set [11] it was “Compound NOT metabolized”; in data set [12] it was “Compound metabolized”. For the same compound, the “Bacterial Biotransformation” value in data set [13] is “Compound NOT metabolized”; in data set [14] it was “Compound NOT metabolized”; in [15] it was “Compound NOT metabolized”; in data set [16] it was “Compound NOT metabolized”; in [17], “Compound NOT metabolized”; in data set [18], “Compound metabolized”. Further, the “Bacterial Biotransformation” value is recorded as “Compound NOT metabolized” in data set [19] and “Compound metabolized” in [20].

Regarding `Cc1ccnc2c1NC(=O)c1cccnc1N2C1CC1` [NEVIRAPINE], the “Bacterial Biotransformation” value is “Compound NOT metabolized” in data set [1]; “Compound NOT metabolized” in [2]; “Compound NOT metabolized” in data set [3]; “Compound metabolized” in data set [4]; “Compound NOT metabolized” in [5]; “Compound NOT metabolized” in [6]. The “Bacterial Biotransformation” value is “Compound metabolized” in [7]; “Compound NOT metabolized” in data set [8]; “Compound NOT metabolized” in data set [9]; “Compound metabolized” in data set [10]; “Compound metabolized” in [11]; “Compound NOT metabolized” in data set [12]. Also, the “Bacterial Biotransformation” value is listed as “Compound NOT metabolized” in data set [13]; “Compound NOT metabolized” in data set [14]; “Compound NOT metabolized” in [15]; “Compound NOT metabolized” in [16]; “Compound NOT metabolized” in [17]; “Compound metabolized” in data set [18]. In addition, the “Bacterial Biotransformation” value is recorded as “Compound NOT metabolized” in data set [19] and “Compound metabolized” in data set [20].

For the compound `CO[C@]12C[C@@H](COC(=O)c3cncc(Br)c3)CN(C)[C@@H]1Cc1cn(C)c3cccc2c13` [NICERGOLINE], the “Bacterial Biotransformation” value in data set [1] is listed as “Compound NOT metabolized”; in data set [2], “Compound NOT metabolized”; in data set [3], “Compound metabolized”; in data set [4], “Compound metabolized”; in [5] it was “Compound NOT metabolized”; in [6] it was “Compound NOT metabolized”. Also, the “Bacterial Biotransformation” value is “Compound metabolized” in data set [7]; “Compound metabolized” in data set [8]; “Compound NOT metabolized” in [9]; “Compound NOT metabolized” in data set [10]; “Compound NOT metabolized” in data set [11]; “Compound metabolized” in [12]. Besides, the “Bacterial Biotransformation” value is “Compound NOT metabolized” in data set [13]; “Compound metabolized” in data set [14]; “Compound metabolized” in [15]; “Compound metabolized” in data set [16]; “Compound metabolized” in [17]; “Compound NOT metabolized” in data set [18]. For the same compound, the “Bacterial Biotransformation” value in [19] and in [20] was “Compound NOT metabolized” each time.

On to `COc1ccc2c(c1OC)C(=O)O[C@@H]2[C@H]1c2c(cc3c(c2OC)OCO3)CCN1C` [NOSCAPINE], for which the “Bacterial Biotransformation” value in data set [1] was “Compound metabolized”; in data set [2], “Compound NOT metabolized”; in [3], “Compound metabolized”; in [4] it was “Compound metabolized”; in data set [5], “Compound metabolized”; in data set [6], “Compound NOT metabolized”. Also, the “Bacterial Biotransformation” value in data set [7] is on record as “Compound metabolized”; in data set [8], “Compound NOT metabolized”; in data set [9] it was “Compound NOT metabolized”; in [10], “Compound metabolized”; in data set [11], “Compound metabolized”; in data set [12] it was “Compound NOT metabolized”. The “Bacterial Biotransformation” value is “Compound NOT metabolized” in [13]; “Compound metabolized” in data set [14]; “Compound metabolized” in [15]; “Compound metabolized” in [16]; “Compound NOT metabolized” in [17]; “Compound NOT metabolized” in data set [18]. For the same compound, the figures for the “Bacterial Biotransformation” value in data set [19] and in data set [20] were “Compound NOT metabolized” and “Compound metabolized”, respectively.

Source of the values: ChEMBL document CHEMBL5724914, “Linking interpersonal differences in gut microbiota composition and drug biotransformation activity” (2024).
